Source: ChEMBL document CHEMBL3885881, “DrugMatrix”

Organism: Rattus norvegicus
Assay: DrugMatrix - Regimen: Daily Repeat
Format: toxicity, organism-based, Sprague-Dawley
Design: regimen Daily Repeat, gender Male, age 6-8 weeks
Details: in vivo, sc, route subcutaneous, […]; for ABSOLUTE BASOPHIL / ABSOLUTE EOSINOPHIL / ABSOLUTE LYMPHOCYTE / ABSOLUTE MONOCYTE / BASOPHIL / EOSINOPHIL / ERYTHROCYTE COUNT / HEMATOCRIT / HEMOGLOBIN / LEUKOCYTE COUNT / LYMPHOCYTE / MEAN CORPUSCULAR HEMOGLOBIN / MEAN CORPUSCULAR HEMOGLOBIN CONCENTRATION / MEAN CORPUSCULAR VOLUME / MONOCYTE / NEUTROPHIL / NUCLEATED RED BLOOD CELLS / PLATELET COUNT: tissue Blood; for ALANINE AMINOTRANSFERASE / ALBUMIN / ASPARTATE AMINOTRANSFERASE / BLOOD UREA NITROGEN / CARBON DIOXIDE / CHLORIDE / CHOLESTEROL / CREATINE PHOSPHOKINASE / CREATININE / GLUCOSE / LACTATE DEHYDROGENASE / LIPASE / PHOSPHORUS / POTASSIUM / SODIUM / TOTAL BILIRUBIN / TOTAL PROTEIN / URIC ACID: tissue Plasma
[1] = 64 mg/kg, 120 h, dose level Low, time 5 day
[2] = 636 mg/kg, 72 h, dose level High, time 3 day
[3] = 636 mg/kg, 120 h, dose level High, time 5 day

Q: Which “ABSOLUTE BASOPHIL” value [1] does the source give for Nc1ccc(S(N)(=O)=O)cc1 [SULFANILAMIDE] here?
A: 0 CELLS/uL

Q: And the “ABSOLUTE EOSINOPHIL” value [1]?
A: 0 CELLS/uL

Q: And the “ABSOLUTE LYMPHOCYTE” value [1]?
A: 12536.33 CELLS/uL

Q: What about the “ABSOLUTE MONOCYTE” value [1] of the same molecule?
A: 42.67 CELLS/uL

Q: And the BASOPHIL [1]?
A: 0%

Q: And the EOSINOPHIL [1]?
A: 0%

Q: What about the “ERYTHROCYTE COUNT” value [1] of the same molecule?
A: 5.85 x10E6/uL

Q: What about the HEMATOCRIT [1] of the same molecule?
A: 36.4%

Q: What about the HEMOGLOBIN [1] of the same molecule?
A: 13.6 G/DL

Q: What about the “LEUKOCYTE COUNT” value [1] of the same molecule?
A: 13.6 x10E3/uL

Q: And the LYMPHOCYTE [1]?
A: 92.67%

Q: And the “MEAN CORPUSCULAR HEMOGLOBIN” value [1]?
A: 23.33 pg

Q: What about the “MEAN CORPUSCULAR HEMOGLOBIN CONCENTRATION” value [1] of the same molecule?
A: 37.4 G/DL

Q: And the “MEAN CORPUSCULAR VOLUME” value [1]?
A: 62.37 fL

Q: And the MONOCYTE [1]?
A: 0.33%

Q: What about the NEUTROPHIL [1] of the same molecule?
A: 7%

Q: What about the “NUCLEATED RED BLOOD CELLS” value [1] of the same molecule?
A: 0.33 /100WBC

Q: And the “PLATELET COUNT” value [1]?
A: 1318 x10E3/uL

Q: And the “ALANINE AMINOTRANSFERASE” value [1]?
A: 52 u/L

Q: And the ALBUMIN [1]?
A: 4.03 G/DL

Q: What about the “ASPARTATE AMINOTRANSFERASE” value [1] of the same molecule?
A: 72 u/L

Q: And the “BLOOD UREA NITROGEN” value [1]?
A: 15.67 mg/dL

Q: And the “CARBON DIOXIDE” value [1]?
A: 26.33 mmol/L

Q: And the CHLORIDE [1]?
A: 105.33 MEQ/L

Q: And the CHOLESTEROL [1]?
A: 72.33 mg/dL

Q: And the “CREATINE PHOSPHOKINASE” value [1]?
A: 187 u/L

Q: And the CREATININE [1]?
A: 0.27 mg/dL

Q: And the GLUCOSE [1]?
A: 156.33 mg/dL

Q: And the “LACTATE DEHYDROGENASE” value [1]?
A: 102.33 u/L

Q: What about the LIPASE [1] of the same molecule?
A: 11 u/L

Q: And the PHOSPHORUS [1]?
A: 12.07 mg/dL

Q: What about the POTASSIUM [1] of the same molecule?
A: 7.26 MEQ/L

Q: What about the SODIUM [1] of the same molecule?
A: 145.23 MEQ/L

Q: What about the “TOTAL BILIRUBIN” value [1] of the same molecule?
A: 0.23 mg/dL

Q: What about the “TOTAL PROTEIN” value [1] of the same molecule?
A: 5.9 G/DL

Q: What about the “URIC ACID” value [1] of the same molecule?
A: 1.87 mg/dL

Q: What about the “ABSOLUTE BASOPHIL” value [2] of the same molecule?
A: 0 CELLS/uL

Q: And the “ABSOLUTE EOSINOPHIL” value [2]?
A: 116 CELLS/uL

Q: And the “ABSOLUTE LYMPHOCYTE” value [2]?
A: 13223.33 CELLS/uL

Q: And the “ABSOLUTE MONOCYTE” value [2]?
A: 374 CELLS/uL

Q: And the BASOPHIL [2]?
A: 0%

Q: And the EOSINOPHIL [2]?
A: 0.67%

Q: And the “ERYTHROCYTE COUNT” value [2]?
A: 5.74 x10E6/uL

Q: What about the HEMATOCRIT [2] of the same molecule?
A: 35.33%

Q: And the HEMOGLOBIN [2]?
A: 12.9 G/DL

Q: And the “LEUKOCYTE COUNT” value [2]?
A: 15.8 x10E3/uL

Q: And the LYMPHOCYTE [2]?
A: 83.67%

Q: And the “MEAN CORPUSCULAR HEMOGLOBIN” value [2]?
A: 22.47 pg

Q: What about the “MEAN CORPUSCULAR HEMOGLOBIN CONCENTRATION” value [2] of the same molecule?
A: 36.5 G/DL

Q: And the “MEAN CORPUSCULAR VOLUME” value [2]?
A: 61.53 fL

Q: What about the MONOCYTE [2] of the same molecule?
A: 2.33%

Q: What about the NEUTROPHIL [2] of the same molecule?
A: 13.33%

Q: What about the “NUCLEATED RED BLOOD CELLS” value [2] of the same molecule?
A: 0 /100WBC

Q: What about the “PLATELET COUNT” value [2] of the same molecule?
A: 1297.33 x10E3/uL

Q: And the “ALANINE AMINOTRANSFERASE” value [2]?
A: 71 u/L

Q: And the ALBUMIN [2]?
A: 3.97 G/DL

Q: And the “ASPARTATE AMINOTRANSFERASE” value [2]?
A: 90.33 u/L

Q: And the “BLOOD UREA NITROGEN” value [2]?
A: 18.67 mg/dL

Q: And the “CARBON DIOXIDE” value [2]?
A: 25 mmol/L

Q: What about the CHLORIDE [2] of the same molecule?
A: 103 MEQ/L

Q: And the CHOLESTEROL [2]?
A: 101.33 mg/dL

Q: And the “CREATINE PHOSPHOKINASE” value [2]?
A: 400.67 u/L

Q: And the CREATININE [2]?
A: 0.16 mg/dL

Q: What about the GLUCOSE [2] of the same molecule?
A: 181.67 mg/dL

Q: What about the “LACTATE DEHYDROGENASE” value [2] of the same molecule?
A: 100.67 u/L

Q: What about the LIPASE [2] of the same molecule?
A: 10 u/L

Q: What about the PHOSPHORUS [2] of the same molecule?
A: 12.37 mg/dL

Q: And the POTASSIUM [2]?
A: 5.81 MEQ/L

Q: What about the SODIUM [2] of the same molecule?
A: 145.13 MEQ/L

Q: And the “TOTAL BILIRUBIN” value [2]?
A: 0.2 mg/dL

Q: And the “TOTAL PROTEIN” value [2]?
A: 5.67 G/DL

Q: What about the “URIC ACID” value [2] of the same molecule?
A: 2.4 mg/dL

Q: And the “ABSOLUTE BASOPHIL” value [3]?
A: 0 CELLS/uL

Q: What about the “ABSOLUTE EOSINOPHIL” value [3] of the same molecule?
A: 129.33 CELLS/uL

Q: What about the “ABSOLUTE LYMPHOCYTE” value [3] of the same molecule?
A: 15741.33 CELLS/uL

Q: And the “ABSOLUTE MONOCYTE” value [3]?
A: 353 CELLS/uL

Q: What about the BASOPHIL [3] of the same molecule?
A: 0%

Q: And the EOSINOPHIL [3]?
A: 0.67%

Q: And the “ERYTHROCYTE COUNT” value [3]?
A: 5.45 x10E6/uL

Q: And the HEMATOCRIT [3]?
A: 34.17%

Q: And the HEMOGLOBIN [3]?
A: 12.6 G/DL

Q: And the “LEUKOCYTE COUNT” value [3]?
A: 18.03 x10E3/uL

Q: And the LYMPHOCYTE [3]?
A: 86.33%

Q: And the “MEAN CORPUSCULAR HEMOGLOBIN” value [3]?
A: 23.13 pg

Q: And the “MEAN CORPUSCULAR HEMOGLOBIN CONCENTRATION” value [3]?
A: 36.87 G/DL

Q: What about the “MEAN CORPUSCULAR VOLUME” value [3] of the same molecule?
A: 62.7 fL

Q: What about the MONOCYTE [3] of the same molecule?
A: 2%

Q: And the NEUTROPHIL [3]?
A: 11%

Q: What about the “NUCLEATED RED BLOOD CELLS” value [3] of the same molecule?
A: 0 /100WBC

Q: What about the “PLATELET COUNT” value [3] of the same molecule?
A: 1550 x10E3/uL

Q: What about the “ALANINE AMINOTRANSFERASE” value [3] of the same molecule?
A: 66 u/L

Q: What about the ALBUMIN [3] of the same molecule?
A: 3.8 G/DL

Q: What about the “ASPARTATE AMINOTRANSFERASE” value [3] of the same molecule?
A: 77 u/L

Q: What about the “BLOOD UREA NITROGEN” value [3] of the same molecule?
A: 21.67 mg/dL

Q: What about the “CARBON DIOXIDE” value [3] of the same molecule?
A: 26.67 mmol/L

Q: And the CHLORIDE [3]?
A: 105.33 MEQ/L

Q: And the CHOLESTEROL [3]?
A: 81.33 mg/dL

Q: What about the “CREATINE PHOSPHOKINASE” value [3] of the same molecule?
A: 230.33 u/L

Q: What about the CREATININE [3] of the same molecule?
A: 0.16 mg/dL

Q: What about the GLUCOSE [3] of the same molecule?
A: 165.33 mg/dL

Q: What about the “LACTATE DEHYDROGENASE” value [3] of the same molecule?
A: 107.33 u/L

Q: What about the LIPASE [3] of the same molecule?
A: 9 u/L

Q: And the PHOSPHORUS [3]?
A: 12.53 mg/dL

Q: And the POTASSIUM [3]?
A: 7.05 MEQ/L

Q: And the SODIUM [3]?
A: 144.3 MEQ/L

Q: What about the “TOTAL BILIRUBIN” value [3] of the same molecule?
A: 0.2 mg/dL

Q: And the “TOTAL PROTEIN” value [3]?
A: 5.63 G/DL

Q: And the “URIC ACID” value [3]?
A: 1.93 mg/dL
